Experimental data reported in article PMC11763264, “Antibacterial and Antifungal Activities of Linear and Cyclic Peptides Containing Arginine, Tryptophan, and Diphenylalanine” (Antibiotics, 2025).
Converted amounts (≈) assume the structure as drawn. “And” between values parts separate entries of the source, which are not always exact repeats. Equal values may be shown once. Non-standard residues stand in square brackets, D forms with d. Residues, ends and D or L forms follow the SMILES beside them. Dip = N[C@H](C(=O)O)C(c1ccccc1)c1ccccc1

Experiments:
E. faecium (ATCC 700221) = experiment: microbe, parasite or virus in culture; assay type: cell-based, Enterococcus faecium; settings: ATCC 700221, 24 h
Method: (§1) The antibacterial activity of all ten synthesized linear and cyclic peptides was evaluated against MRSA (ATCC BAA-1556), S. aureus (ATCC 29213), E. faecium (ATCC 700221), S. pneumoniae (ATCC 51938), E. faecalis (ATCC 29212), B. subtilis (ATCC-6633), K. pneumoniae (ATCC BAA-1705), P. aeruginosa (ATCC 27883), and E. coli (ATCC 25922). Meropenem and daptomycin were used as positive controls for this study. Certain peptides are marked as “NT” (not tested) against specific bacterial strains based on initial screening data. […] The MIC was determined by micro-broth dilution protocol, where the minimal concentrations were determined to be in wells with no visible bacterial growth.
(§2) All bacterial experiments were carried out in a laminar flow hood (Labconco, Kansas City, MO, USA). The bacterial strains were cultured following the guidelines set by the Clinical Laboratory Standards Institute (CLSI). Antibacterial assays were performed using a standard microtiter dilution method as described in previous studies. The minimum inhibitory concentration (MIC) refers to the lowest peptide concentration that inhibits bacterial growth in wells with no visible bacterial growth. MIC was determined by micro-broth dilution. Bacteria were cultured overnight in 6 mL of Luria Broth (LB). A stock solution of the peptide was prepared in water and DMSO, and a test compound solution with a concentration of 256 µg/mL was made in LB. Meropenem, with a solubility of 8 mg/mL, was prepared as a stock solution at 4 mg/500 µL. An aliquot of the overnight bacteria culture was diluted in normal saline (NS, 1 mL) until achieving a 0.5 McFarland turbidity (1.5 × 10^8 bacterial cell CFU/mL). A 0.5 McFarland compared solution (60 µL) was added to Mueller Hinton Broth (MH) 8940 µL to generate a 1/150 dilution. A 200 µL test compound solution was added to the first well of a 96-well plate, and the remaining wells (2–12) were filled with 100 µL of MH media using a multi-channel pipette from a sterile reservoir. A concentration of […] of the tested peptides was prepared from a stock solution of the samples for testing in Muller−Hinton broth MH media. Peptides stock solution was dissolved in 5% DMSO in water, and the final concentration of DMSO in the first well of assay plate was 2.5% DMSO/H2O and diluted across the assay plate.
(§3) A 100 µL sample from well 1 was pipetted into well 2, and the solution was mixed thoroughly by pipetting up and down. Next, 100 µL was transferred from well 2 to well 3, followed by thorough mixing. This 2-fold serial dilution process continued through well 11, with no additions made to well 12. The final 100 µL from well 11 was discarded. After completing the serial dilution, each well (1–12) contained 100 µL of solution. The bacterial culture in MH media was vortexed and transferred to a sterile reservoir, from which 100 µL was added to each well using a 12-channel pipette. (Note: The dilutions were further diluted upon adding the bacterial solution; for example, the concentration in well 1 started at […] after the addition of the bacterial culture.) The plates were incubated overnight at 37 °C for 24 h. All experiments were performed in triplicate and repeated twice, with controls consisting of bacteria in MH media and positive controls of daptomycin or meropenem.

E. coli (ATCC 25922) = experiment: microbe, parasite or virus in culture; assay type: cell-based, Escherichia coli; settings: ATCC 25922, 24 h
Method: as §1, §2, §3

C. albicans (ATCC 60193) = experiment: microbe, parasite or virus in culture; assay type: cell-based, Candida albicans; settings: ATCC 60193, 24 h
Method: The antifungal activity of all ten synthesized linear and cyclic peptides was evaluated against C. albicans (ATCC 60193), C. parapsilosis (ATCC 22019), and A. fumigatus (AF-293). Fluconazole and amphotericin B were used as positive controls for this study. The MIC was determined at concentrations in wells with no visible fungal growth.
In this study, C. albicans and C. parapsilosis were cultured on Yeast Peptone Dextrose (YPD) agar containing 1% w/v yeast extract, 2% w/v peptone, 2% w/v D-glucose, and 1.5% agar. A single colony from the agar was selected and cultured in Tryptone soy broth supplemented with 0.1% D-glucose, then incubated for 24 h at 37 °C. The cells were washed twice with PBS by centrifugation at 2000 RPM for 5 min. The pellet was resuspended in 5 mL of PBS, diluted in RPMI 1640 with L-glutamine, supplemented with 2% D-glucose, and the pH adjusted using HEPES buffer. The suspension was then incubated for 50 min at 35 °C to achieve a final cell concentration of 10^6 cells/mL.
Peptide concentrations of 50, 25, 12.5, 6.25, and 3.1 μg/mL were tested in triplicate and repeated twice. Each well of a 96-well plate was inoculated with the prepared inoculum suspension, which was diluted with RPMI media to a final volume of 200 μL per well. The control well received the same inoculum without any compound. The plates were incubated for 24 h at 37 °C. Fungal and microbial growth were visually observed in the control wells, and the minimum inhibitory concentration (MIC) was determined as the lowest concentration at which no growth was detected in the wells. Amphotericin B was used as a standard antifungal drug.

[1] = test system: Gram-negative strains: K. pneumoniae, P. aeruginosa, and E. coli; experiment: MIC, micro-broth dilution, span over Gram-negative strains; assay type: cell-based
Method: as §1
All bacterial experiments were carried out in a laminar flow hood (Labconco, Kansas City, MO, USA). The bacterial strains were cultured following the guidelines set by the Clinical Laboratory Standards Institute (CLSI). Antibacterial assays were performed using a standard microtiter dilution method as described in previous studies. The minimum inhibitory concentration (MIC) refers to the lowest peptide concentration that inhibits bacterial growth in wells with no visible bacterial growth. MIC was determined by micro-broth dilution. Bacteria were cultured overnight in 6 mL of Luria Broth (LB). […]

`N=C(N)NCCC[C@@H]1NC(=O)[C@H](C(c2ccccc2)c2ccccc2)NC(=O)[C@H](CCCNC(=N)N)NC(=O)[C@H](C(c2ccccc2)c2ccccc2)NC(=O)[C@H](CCCNC(=N)N)NC(=O)[C@H](C(c2ccccc2)c2ccccc2)NC(=O)[C@H](CCCNC(=N)N)NC(=O)[C@H](C(c2ccccc2)c2ccccc2)NC(=O)[C@H](CCCNC(=N)N)NC(=O)[C@H](C(c2ccccc2)c2ccccc2)NC1=O` [[DipR]5] (cyclo([Dip]R[Dip]R[Dip]R[Dip]R[Dip]R)) gave an MIC (E. faecium (ATCC 700221)) of 0.78 µM (≈ 1.48 µg/mL), an MIC (E. coli (ATCC 25922)) of 12.5 µM (≈ 23.7 µg/mL) and an MIC (C. albicans (ATCC 60193)) of 13.1 µM (≈ 24.9 µg/mL). For the same molecule, the “MIC values against Gram-negative strains” value [1] was 12.5–25 µM and 23.8–47.6 µg/mL.
